# Earlier results as cited in patent publication US7641924B2, “Nutritional composition for controlling blood sugar level” (Meiji Dairies Corporation, priority 2001, dated 2010).
# Key:
# [1] = target: isomaltase in the small intestine (Homo sapiens, UniProt P14410)
# [2] = in vivo
# isomaltase in the small intestine, sequence (P14410 whole entry): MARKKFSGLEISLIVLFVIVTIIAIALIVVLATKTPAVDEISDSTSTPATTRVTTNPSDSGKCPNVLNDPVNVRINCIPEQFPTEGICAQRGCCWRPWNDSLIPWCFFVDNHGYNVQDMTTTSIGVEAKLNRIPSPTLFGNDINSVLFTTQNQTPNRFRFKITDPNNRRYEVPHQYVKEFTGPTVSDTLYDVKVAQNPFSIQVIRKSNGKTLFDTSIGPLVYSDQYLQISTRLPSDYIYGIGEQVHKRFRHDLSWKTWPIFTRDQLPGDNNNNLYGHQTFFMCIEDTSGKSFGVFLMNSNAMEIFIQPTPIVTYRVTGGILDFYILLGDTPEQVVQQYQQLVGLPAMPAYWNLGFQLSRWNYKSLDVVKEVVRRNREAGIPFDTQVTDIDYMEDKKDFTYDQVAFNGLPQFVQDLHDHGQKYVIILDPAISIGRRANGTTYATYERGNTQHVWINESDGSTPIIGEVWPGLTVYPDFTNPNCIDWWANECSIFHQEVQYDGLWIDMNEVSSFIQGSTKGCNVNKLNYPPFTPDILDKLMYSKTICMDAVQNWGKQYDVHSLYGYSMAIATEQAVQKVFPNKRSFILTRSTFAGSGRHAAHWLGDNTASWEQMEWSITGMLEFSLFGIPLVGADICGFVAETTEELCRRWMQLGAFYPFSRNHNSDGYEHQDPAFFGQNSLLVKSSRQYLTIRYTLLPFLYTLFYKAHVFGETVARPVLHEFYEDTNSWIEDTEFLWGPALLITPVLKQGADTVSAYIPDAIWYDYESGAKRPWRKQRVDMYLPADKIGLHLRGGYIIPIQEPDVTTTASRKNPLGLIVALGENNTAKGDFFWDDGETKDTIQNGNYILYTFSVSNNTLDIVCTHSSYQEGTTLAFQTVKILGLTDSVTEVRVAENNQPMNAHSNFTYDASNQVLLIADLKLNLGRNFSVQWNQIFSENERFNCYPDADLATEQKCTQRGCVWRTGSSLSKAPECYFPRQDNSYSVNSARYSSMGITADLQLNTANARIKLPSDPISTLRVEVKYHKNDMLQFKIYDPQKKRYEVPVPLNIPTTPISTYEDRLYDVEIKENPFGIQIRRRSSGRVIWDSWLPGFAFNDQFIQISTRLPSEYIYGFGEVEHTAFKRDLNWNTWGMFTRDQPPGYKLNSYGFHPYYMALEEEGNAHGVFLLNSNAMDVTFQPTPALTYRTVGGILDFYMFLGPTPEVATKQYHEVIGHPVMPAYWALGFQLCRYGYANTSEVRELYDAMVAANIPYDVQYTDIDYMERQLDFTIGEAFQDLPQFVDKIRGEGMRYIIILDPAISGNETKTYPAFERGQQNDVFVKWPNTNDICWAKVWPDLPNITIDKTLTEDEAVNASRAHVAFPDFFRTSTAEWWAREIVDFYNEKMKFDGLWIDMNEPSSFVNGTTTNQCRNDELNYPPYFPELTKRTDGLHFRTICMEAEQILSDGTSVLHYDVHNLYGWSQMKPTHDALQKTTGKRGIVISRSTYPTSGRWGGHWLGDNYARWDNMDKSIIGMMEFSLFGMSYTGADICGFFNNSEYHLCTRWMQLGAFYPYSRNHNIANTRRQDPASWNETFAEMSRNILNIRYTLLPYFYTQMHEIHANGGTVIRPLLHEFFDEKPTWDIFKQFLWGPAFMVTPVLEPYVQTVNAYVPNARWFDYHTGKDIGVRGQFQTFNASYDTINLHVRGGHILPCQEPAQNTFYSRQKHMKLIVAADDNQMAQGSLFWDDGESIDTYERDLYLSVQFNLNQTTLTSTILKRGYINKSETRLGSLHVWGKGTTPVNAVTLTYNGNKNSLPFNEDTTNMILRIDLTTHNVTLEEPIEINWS
Molecule,hydrolysis rate relative to that of sucrose [1],hydrolysis rate relative to that of palatinose ([1]; small intestine),blood glucose level after intake [2],insulin level after intake [2]
Trehalulose,one third,about 2 times,,
"OC[C@H]1O[C@H](OC[C@H]2OC(O)(CO)[C@@H](O)[C@@H]2O)[C@H](O)[C@@H](O)[C@@H]1O (some centres unmarked) [palatinose, Palatinose]",one fifth,,maintained at predetermined levels over many hours,maintained at predetermined levels over many hours
